From patent US12286632B2, “Rationally-designed synthetic peptide shuttle agents for delivering polypeptide cargos from an extracellular space to the cytosol and/or nucleus of a target eukaryotic cell, uses thereof, methods and kits relating to same” (Feldan Bio Inc., priority 2016, dated 2025)

Columns and labels:
[1] = test system: NIH3T3 cells; test: GFP-NLS transduction in different adherent and suspension cells (flow cytometry, Pos cells % and viability %); format: cell-based; details: Protocol B, 35 μM shuttle, 5 μM GFP-NLS, 10 seconds
Description: (§1) The media in wells was removed, cells were washed once with PBS previously warmed at 37° C., and the shuttle agent/cargo mixture was then added to cover all cells for the desired length of time. The shuttle agent/cargo mixture in wells was removed, the cells were washed once with PBS, and fresh complete medium was added. Before analysis, the cells were washed once with PBS and fresh complete medium was added.
(§2) The ability of the shuttle agent His-CM18-PTD4 to deliver GFP-NLS to the nuclei of different adherent and suspension cells using Protocols B (adherent cells) or C (suspension cells) as described in Example 9.1 was examined. The cell lines tested included: HeLa, Balb3T3, HEK 293T, CHO, NIH3T3, Myoblasts, Jurkat, THP-1, CA46, and HT2 cells, which were cultured as described in Example 1. GFP-NLS (5 μM; see Example 5.1) was co-incubated with 35 μM of His-CM18-PTD4 and exposed to adherent cells for 10 seconds (Protocol B), or was co-incubated with 5 μM of His-CM18-PTD4 and exposed to suspension cells for 15 seconds (Protocol C). […] “Pos cells (%)” is the mean percentages of all cells that emanate a GFP signal.

[2] = test system: Balb3T3 cells; test: as above; format: cell-based; details: Protocol B, 35 μM shuttle, 5 μM GFP-NLS, 10 seconds
Description: as §1, §2

[3] = test system: HeLa cells; test: GFP-NLS and mCherry-NLS co-transduction, visualization by microscopy; format: cell-based, Human; details: each cargo 5 μM; shuttle 35 μM; 10 seconds, Protocol B
Description: as §1
• GFP-NLS recombinant protein (5 μM; see Example 5.1) and mCherry™-NLS recombinant protein (5 μM) were co-incubated together with 35 μM of His-CM18-PTD4, and then exposed to HeLa cells for 10 seconds using Protocol B as described in Example 9.1. After washing steps, the cells were immediately visualized by bright field and fluorescence microscopy at 20× magnifications as described in Example 3.2. Sample results are shown in FIG. 28, in which corresponding images showing bright field (FIG. 28A), DAPI fluorescence (FIG. 28B), GFP-NLS fluorescence (FIG. 28C), and mCherry™-NLS fluorescence (FIG. 28D) are shown. White triangle windows indicate examples of areas of co-labelling between GFP-NLS and mCherry™ fluorescence signals in cell nuclei. […] 9.7 GFP-NLS Transduction by his-CM18-PTD4 in THP-1 Suspension Cells: Flow Cytometry

[4] = test system: HeLa cells; test: FITC-labeled anti-tubulin antibody transduction assay (flow cytometry, cell viability, microscopy); details: antibody 0.5 μM; shuttle 50 μM; 10 seconds, Protocol B
Description: The delivery and microscopy protocols are described in Example 3.
HeLa cells were cultured and tested in the protein transduction assay described in Example 3.1. […] The cells were subjected to flow cytometry analysis as described in Example 3.3.

[5] = test system: 293T, Balb3T3, CHO, Myoblasts, Jurkat, CA46, HT2 and NIH3T3 cells; test: GFP-NLS transduction in several adherent and suspension cells, visualization by microscopy; format: cell-based; details: 35 μM, 10 seconds (adherent) or 5 μM, 15 seconds (suspension); GFP-NLS 5 μM
Description: GFP-NLS recombinant protein (5 μM; see Example 5.1) was co-incubated with 35 μM of His-CM18-PTD4 and exposed to adherent cells for 10 seconds using […], or was co-incubated with 5 μM of His-CM18-PTD4 and exposed to suspension cells for 15 seconds using Protocol B, as described in Example 9.1. After washing the cells, GFP fluorescence was visualized by bright field and fluorescence microscopy. Sample images captured at 10× magnifications showing GFP fluorescence are shown for 293T (FIG. 37A), Balb3T3 (FIG. 37B), CHO (FIG. 37C), Myoblasts (FIG. 370), Jurkat (FIG. 37E), CA46 (FIG. 37F), HT2 (FIG. 37G), and NIH3T3 (FIG. 37H) cells. The insets show corresponding flow cytometry results performed as described in Example 3.3, indicating the percentage of GFP-NLS-positive cells.
Nuclear localization of the GFP-NLS was further confirmed in fixed and permeabilized myoblasts using cell immuno-labelling as described in Example 3.2a. GFP-NLS was labeled using a primary mouse monoclonal anti-GFP antibody (Feldan, #A017) and a secondary goat anti-mouse Alexa™-594 antibody (Abcam #150116). Nuclei were labelled with DAPI. Sample results for primary human myoblast cells are shown in FIG. 38, in which GFP immuno-labelling is shown in FIG. 38A, and an overlay of the GFP immuno-labelling and DAPI labelling is shown in FIG. 38B.

[6] = test system: THP-1 cells; test: GFP-NLS protein transduction assay (flow cytometry: Pos cells %, viability %, relative fluorescence intensity; microscopy)
Description: One day before the transduction assay was performed, cells in exponential growth phase were harvested and plated in a 96-well plate (20,000 cells per well). The cells were incubated overnight in appropriate growth media containing FBS (see Example 1). The next day, in separate sterile 1.5 mL tubes, cargo protein at the indicated concentration was pre-mixed (pre-incubated) for 1 or 10 min (depending on the protocol) at 37° C. with the peptide(s) to be tested shuttle agents (0.5 to 5 μM) in 50 μL of fresh medium without serum (unless otherwise specified). The media in wells was removed and the cells were washed three times with freshly prepared phosphate buffered saline (PBS) previously warmed at 37° C. The cells were incubated with the cargo protein/shuttle agent mixture at 37° C. for the indicated time (e.g., 1, 5 or 60 min). After the incubation, the cells were quickly washed three times with freshly prepared PBS and/or heparin (0.5 mg/mL) previously warmed at 37° C. The washes with heparin were required for human THP-1 blood cells to avoid undesired cell membrane-bound protein background in subsequent analyses (microscopy and flow cytometry). The cells were finally incubated in 50 μL of fresh medium with serum at 37° C. before analysis.
One day before the transduction assay was performed, suspension cells in exponential growth phase were harvested and plated in a 96-well plate (20,000 cells per well). The cells were incubated overnight in appropriate growth media containing serum (see Example 1). The next day, in separate sterile 1.5-mL tubes, peptides were diluted in sterile distilled water at room temperature (if the cargo is or comprised a nucleic acid, nuclease-free water was used). Cargo protein(s) were then added to the peptides and, if necessary, sterile PBS or cell culture medium (serum-free) was added to obtain the desired concentrations of shuttle agent and cargo in a sufficient final volume to resuspend the cells (e.g., 10 to 100 μL per well in a 96-well plate). The shuttle agent/peptide was then immediately used for experiments. At least three controls were included for each experiment, including: (1) peptide alone (e.g., at highest concentration tested); (2) cargo alone; and (3) without any cargo or shuttle agent. The cells were centrifuged for 2 minutes at 400g, the medium was then removed and the cells were resuspended in PBS previously warmed at 37° C. The cells were centrifuged again 2 minutes at 400g, the PBS removed, and the cells were resuspended with the cargo protein/peptide mixture at 37° C. for the desired length of time. After that, 200 μL of complete medium was added directly on the cells. Cells were centrifuged for 2 minutes at 400g and the medium was removed. The pellet was resuspended and washed in 200 μL of PBS previously warmed at 37° C. After another centrifugation, the PBS was removed and the cells were resuspended in 50 μL of trypsin-EDTA solution for 2 min. 200 of complete medium was directly added and cells were centrifuged for 2 minutes at 400g. The medium was removed and the cells were resuspended in 200 μL of complete medium.
The cells incubated in 50 μL of fresh medium were directly observed by microscopy (Bright-field and fluorescence) at different power fields (4× to 40×). The cells were observed using a CoolSNAP-PRO™ camera (Series A02D874021) and images were acquired using the Image-Proplus™ software.
The fluorescence of GFP was quantified using flow cytometry (Accuri C6, Becton, Dickinson and Company (BD)).

[7] = THP-1, Protocol C, 5 μM shuttle, 5 μM GFP-NLS, 15 seconds

SMILES: CC[C@H](C)[C@H](NC(=O)[C@H](CCCCN)NC(=O)[C@H](CCCCN)NC(=O)[C@H](Cc1ccccc1)NC(=O)[C@H](CC(C)C)NC(=O)[C@H](CCCCN)NC(=O)[C@H](Cc1c[nH]c2ccccc12)NC(=O)[C@H](CCCCN)NC(=O)[C@H](Cc1c[nH]cn1)NC(=O)[C@H](Cc1c[nH]cn1)NC(=O)[C@H](Cc1c[nH]cn1)NC(=O)[C@H](Cc1c[nH]cn1)NC(=O)[C@H](Cc1c[nH]cn1)NC(=O)[C@@H](N)Cc1c[nH]cn1)C(=O)NCC(=O)N[C@@H](C)C(=O)N[C@H](C(=O)N[C@@H](CC(C)C)C(=O)N[C@@H](CCCCN)C(=O)N[C@H](C(=O)N[C@@H](CC(C)C)C(=O)N[C@H](C(=O)N[C@H](C(=O)NCC(=O)N[C@@H](Cc1ccc(O)cc1)C(=O)N[C@@H](C)C(=O)N[C@@H](CCCNC(=N)N)C(=O)N[C@@H](C)C(=O)N[C@@H](C)C(=O)N[C@@H](C)C(=O)N[C@@H](CCCNC(=N)N)C(=O)N[C@@H](CCC(N)=O)C(=O)N[C@@H](C)C(=O)N[C@@H](CCCNC(=N)N)C(=O)N[C@@H](C)C(=O)O)[C@@H](C)O)[C@@H](C)O)C(C)C)C(C)C [His-CM18-PTD4]
- Cell viability (%) (±St. Dev.; n = 3) [1]: 3.3 ± 5.4%
- Mean % cells with GFP signal (±St. Dev.; n = 3) [1]: 35.4 ± 3.9%
- Cell viability (%) (±St. Dev.; n = 3) [2]: 98.4 ± 0.6%
- Mean % cells with GFP signal (±St. Dev.; n = 3) [2]: 40.2 ± 3.1%
- co-delivery of GFP-NLS and mCherry-NLS (microscopy) [3]: successfully delivered together to the nucleus
- antibody delivery (microscopy, in words) [4]: successfully transduced and delivered to the nucleus and/or the cytosol
- GFP-NLS nuclear delivery (microscopy) [5]: successfully delivered to the nucleus of all the tested cells
- GFP-NLS intracellular delivery after repeated daily treatments (in words) ([6]; 0.5 or 0.8 μM shuttle, 150 min each day, in the presence of serum): result in intracellular delivery of GFP-NLS
- Mean % cells with GFP signal (±St. Dev.; n = 3) ([6]; Protocol C, THP-1, 1 μM shuttle, 5 μM GFP-NLS, incubation 15 sec): 23.7 ± 0.2%
- Mean % cells with GFP signal (±St. Dev.; n = 3) ([6]; Protocol C, THP-1, 1 μM shuttle, 5 μM GFP-NLS, incubation 30 sec): 53 ± 0.3%
- Mean % cells with GFP signal (±St. Dev.; n = 3) ([6]; Protocol C, THP-1, 1 μM shuttle, 5 μM GFP-NLS, incubation 60 sec): 69.6 ± 4.2%
- Mean % cells with GFP signal (±St. Dev.; n = 3) ([6]; Protocol C, THP-1, 1 μM shuttle, 5 μM GFP-NLS, incubation 120 sec): 89 ± 0.8%
- Cell viability (%) (±St. Dev.; n = 3) [6, 7]: 64.1 ± 4.5%
- Mean % cells with GFP signal (±St. Dev.; n = 3) [6, 7]: 64.1 ± 1.6%
- Mean % cells with GFP signal (±St. Dev.; n = 3) ([6]; THP-1, serum, daily 150 min, 0.5 μM shuttle, 5 μM GFP-NLS, 1 day exposure): 12.1 ± 1.5%
- Mean % cells with GFP signal (±St. Dev.; n = 3) ([6]; THP-1, serum, daily 150 min, 0.5 μM shuttle, 5 μM GFP-NLS, 3 days exposure): 73.4 ± 1.1%
- Mean % cells with GFP signal (±St. Dev.; n = 3) ([6]; THP-1, serum, daily 150 min, 0.8 μM shuttle, 1 μM GFP-NLS, 1 day exposure): 1.6 ± 0.2%
- Mean % cells with GFP signal (±St. Dev.; n = 3) ([6]; THP-1, serum, daily 150 min, 0.8 μM shuttle, 1 μM GFP-NLS, 3 days exposure): 6.5 ± 0.9%
- Mean % cells with GFP signal (±St. Dev.; n = 3) ([6]; THP-1, serum, daily 150 min, 0.8 μM shuttle, 2.5 μM GFP-NLS, 1 day exposure): 12.2 ± 0.9%
- Mean % cells with GFP signal (±St. Dev.; n = 3) ([6]; THP-1, serum, daily 150 min, 0.8 μM shuttle, 2.5 μM GFP-NLS, 3 days exposure): 62.4 ± 3.5%
- Mean % cells with GFP signal (±St. Dev.; n = 3) ([6]; Table 9.3, Protocol A, THP-1, shuttle 1 μM, GFP-NLS 5 μM, 1 hour): 14.2 ± 2.2%
- Mean % cells with GFP signal (±St. Dev.; n = 3) ([6]; Table 9.3, Protocol C, THP-1, shuttle 0.5 μM, GFP-NLS 5 μM, 15 seconds): 34.9 ± 3.8%
- Mean % cells with GFP signal (±St. Dev.; n = 3) ([6]; Table 9.3, Protocol C, THP-1, shuttle 5 μM, GFP-NLS 5 μM, 15 seconds): 64.1 ± 1.6%
- GFP-NLS intracellular delivery (microscopy / FACS, in words) ([6]; shuttle 5 μM, GFP-NLS 5 μM, 15 seconds, Protocol C): successfully delivered intracellularly
